In patent US10231954B2, “Neurodegenerative therapies” (LYTIX BIOPHARMA AS, priority 2014, dated 2019):

How the values were obtained:
Type in all cases: biochemical
[1] = molecular target: MST3 (Homo sapiens, UniProt Q9Y6E0); experiment: Kinase profiling MST3; details: 100 micromolar inhibitor concentration, 100 is no change; for remaining activity at 100 µM: read-out: residual kinase activity, MST3
Source text: (§1) Any value less that 25 is considered to be highly significant inhibition.

[2] = molecular target: CDK2-Cyclin A (Homo sapiens, UniProt P24941); experiment: Kinase profiling CDK2-Cyclin A; details: 100 micromolar inhibitor concentration, 100 is no change; for remaining activity at 100 µM: read-out: residual kinase activity, CDK2-Cyclin A
Source text: as §1

[3] = molecular target: T1, ULK2 (Homo sapiens, UniProt Q8IYT8); experiment: Kinase profiling ULK2; details: 100 micromolar inhibitor concentration, 100 is no change; for remaining activity at 100 µM: read-out: residual kinase activity, ULK2
T1 sequence (Q8IYT8 1-1036): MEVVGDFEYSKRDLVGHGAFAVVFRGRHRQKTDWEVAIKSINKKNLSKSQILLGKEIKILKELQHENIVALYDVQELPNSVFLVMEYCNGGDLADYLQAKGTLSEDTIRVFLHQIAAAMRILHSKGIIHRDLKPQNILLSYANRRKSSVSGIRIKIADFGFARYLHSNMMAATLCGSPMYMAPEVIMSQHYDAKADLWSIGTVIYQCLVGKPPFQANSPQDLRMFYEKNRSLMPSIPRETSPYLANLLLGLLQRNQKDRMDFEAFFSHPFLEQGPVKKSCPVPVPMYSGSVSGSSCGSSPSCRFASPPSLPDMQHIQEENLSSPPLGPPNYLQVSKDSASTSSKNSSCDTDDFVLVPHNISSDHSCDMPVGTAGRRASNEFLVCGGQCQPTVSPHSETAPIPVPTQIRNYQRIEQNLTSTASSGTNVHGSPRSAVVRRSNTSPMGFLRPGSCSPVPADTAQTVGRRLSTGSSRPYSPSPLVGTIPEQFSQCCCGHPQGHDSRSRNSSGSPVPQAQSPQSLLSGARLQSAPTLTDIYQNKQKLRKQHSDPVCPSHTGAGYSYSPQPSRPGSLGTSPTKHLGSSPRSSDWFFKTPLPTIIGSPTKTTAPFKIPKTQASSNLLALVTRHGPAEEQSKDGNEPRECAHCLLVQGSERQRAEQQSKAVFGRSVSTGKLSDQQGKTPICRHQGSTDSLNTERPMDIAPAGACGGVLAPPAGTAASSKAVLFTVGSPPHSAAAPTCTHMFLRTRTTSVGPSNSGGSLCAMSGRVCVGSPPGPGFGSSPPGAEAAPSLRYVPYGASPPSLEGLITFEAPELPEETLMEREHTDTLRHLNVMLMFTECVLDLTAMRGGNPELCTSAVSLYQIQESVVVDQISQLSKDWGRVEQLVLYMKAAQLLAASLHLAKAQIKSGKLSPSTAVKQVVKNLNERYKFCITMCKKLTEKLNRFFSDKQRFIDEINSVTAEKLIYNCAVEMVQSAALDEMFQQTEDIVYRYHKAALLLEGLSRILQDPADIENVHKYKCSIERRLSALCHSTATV
Source text: as §1

[4] = molecular target: T2, IKKb (Homo sapiens, UniProt O14920); experiment: Kinase profiling IKKb; details: 100 micromolar inhibitor concentration, 100 is no change; for remaining activity at 100 µM: read-out: residual kinase activity, IKKb
T2 sequence (O14920 1-756): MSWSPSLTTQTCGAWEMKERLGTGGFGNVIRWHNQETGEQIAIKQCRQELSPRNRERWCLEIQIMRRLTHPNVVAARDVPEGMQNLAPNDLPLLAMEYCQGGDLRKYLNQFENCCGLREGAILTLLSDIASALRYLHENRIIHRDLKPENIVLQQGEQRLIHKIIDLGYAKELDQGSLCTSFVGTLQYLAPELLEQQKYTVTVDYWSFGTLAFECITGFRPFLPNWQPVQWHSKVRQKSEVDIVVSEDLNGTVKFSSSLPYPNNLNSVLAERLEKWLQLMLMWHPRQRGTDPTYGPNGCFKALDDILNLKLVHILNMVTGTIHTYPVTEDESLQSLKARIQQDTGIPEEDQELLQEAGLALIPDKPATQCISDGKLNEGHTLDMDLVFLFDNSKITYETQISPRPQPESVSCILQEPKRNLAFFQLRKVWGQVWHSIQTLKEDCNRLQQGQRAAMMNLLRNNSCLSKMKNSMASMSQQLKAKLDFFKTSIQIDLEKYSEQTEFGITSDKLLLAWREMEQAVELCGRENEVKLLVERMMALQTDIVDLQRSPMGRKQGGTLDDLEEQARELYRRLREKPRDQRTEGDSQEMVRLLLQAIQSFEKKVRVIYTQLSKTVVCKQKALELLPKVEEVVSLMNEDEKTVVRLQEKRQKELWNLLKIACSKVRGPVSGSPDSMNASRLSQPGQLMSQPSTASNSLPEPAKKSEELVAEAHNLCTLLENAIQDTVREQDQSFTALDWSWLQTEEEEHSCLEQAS
Source text: as §1

[5] = molecular target: BRK (Homo sapiens, UniProt Q13882); experiment: Kinase profiling BRK; details: 100 micromolar inhibitor concentration, 100 is no change; for remaining activity at 100 µM: read-out: residual kinase activity, BRK
Chain of BRK (Q13882 whole entry, species assumed): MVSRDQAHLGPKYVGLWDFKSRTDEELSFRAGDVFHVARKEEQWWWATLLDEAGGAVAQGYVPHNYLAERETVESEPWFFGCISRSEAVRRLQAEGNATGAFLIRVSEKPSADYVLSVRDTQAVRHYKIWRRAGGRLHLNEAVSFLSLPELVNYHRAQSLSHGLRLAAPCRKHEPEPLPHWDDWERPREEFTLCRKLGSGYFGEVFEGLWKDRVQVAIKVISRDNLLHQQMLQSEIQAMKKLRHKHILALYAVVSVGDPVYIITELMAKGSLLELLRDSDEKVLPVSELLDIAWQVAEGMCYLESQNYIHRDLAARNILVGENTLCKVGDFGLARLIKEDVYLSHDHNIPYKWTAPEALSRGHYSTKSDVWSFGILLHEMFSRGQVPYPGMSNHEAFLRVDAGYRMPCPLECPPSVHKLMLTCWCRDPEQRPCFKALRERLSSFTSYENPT
Source text: as §1

[6] = molecular target: T3, NUAK1 (Homo sapiens, UniProt O60285); experiment: Kinase profiling NUAK1; details: 100 micromolar inhibitor concentration, 100 is no change; for remaining activity at 100 µM: read-out: residual kinase activity, NUAK1
T3 sequence (O60285 1-661): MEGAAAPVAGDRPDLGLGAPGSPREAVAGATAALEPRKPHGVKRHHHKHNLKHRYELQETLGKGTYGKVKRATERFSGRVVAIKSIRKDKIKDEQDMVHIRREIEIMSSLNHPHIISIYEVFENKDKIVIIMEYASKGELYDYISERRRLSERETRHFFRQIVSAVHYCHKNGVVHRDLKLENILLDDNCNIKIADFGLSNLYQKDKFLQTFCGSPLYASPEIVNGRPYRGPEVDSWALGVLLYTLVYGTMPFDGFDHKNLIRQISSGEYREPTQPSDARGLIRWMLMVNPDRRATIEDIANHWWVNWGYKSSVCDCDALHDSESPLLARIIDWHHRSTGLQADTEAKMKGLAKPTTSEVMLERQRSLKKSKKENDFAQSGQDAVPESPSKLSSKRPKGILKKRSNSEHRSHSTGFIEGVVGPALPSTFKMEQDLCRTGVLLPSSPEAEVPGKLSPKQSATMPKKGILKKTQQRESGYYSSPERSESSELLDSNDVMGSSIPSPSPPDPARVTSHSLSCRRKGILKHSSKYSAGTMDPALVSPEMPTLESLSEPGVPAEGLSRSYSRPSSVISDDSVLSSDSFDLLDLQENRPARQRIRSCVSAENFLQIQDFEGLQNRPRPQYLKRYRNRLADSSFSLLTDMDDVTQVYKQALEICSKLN
Source text: as §1

[7] = molecular target: WNK1 (Homo sapiens, UniProt Q9H4A3); experiment: Kinase profiling WNK1; details: 100 micromolar inhibitor concentration, 100 is no change; for remaining activity at 100 µM: read-out: residual kinase activity, WNK1
Chain of WNK1 (Q9H4A3 whole entry, species assumed): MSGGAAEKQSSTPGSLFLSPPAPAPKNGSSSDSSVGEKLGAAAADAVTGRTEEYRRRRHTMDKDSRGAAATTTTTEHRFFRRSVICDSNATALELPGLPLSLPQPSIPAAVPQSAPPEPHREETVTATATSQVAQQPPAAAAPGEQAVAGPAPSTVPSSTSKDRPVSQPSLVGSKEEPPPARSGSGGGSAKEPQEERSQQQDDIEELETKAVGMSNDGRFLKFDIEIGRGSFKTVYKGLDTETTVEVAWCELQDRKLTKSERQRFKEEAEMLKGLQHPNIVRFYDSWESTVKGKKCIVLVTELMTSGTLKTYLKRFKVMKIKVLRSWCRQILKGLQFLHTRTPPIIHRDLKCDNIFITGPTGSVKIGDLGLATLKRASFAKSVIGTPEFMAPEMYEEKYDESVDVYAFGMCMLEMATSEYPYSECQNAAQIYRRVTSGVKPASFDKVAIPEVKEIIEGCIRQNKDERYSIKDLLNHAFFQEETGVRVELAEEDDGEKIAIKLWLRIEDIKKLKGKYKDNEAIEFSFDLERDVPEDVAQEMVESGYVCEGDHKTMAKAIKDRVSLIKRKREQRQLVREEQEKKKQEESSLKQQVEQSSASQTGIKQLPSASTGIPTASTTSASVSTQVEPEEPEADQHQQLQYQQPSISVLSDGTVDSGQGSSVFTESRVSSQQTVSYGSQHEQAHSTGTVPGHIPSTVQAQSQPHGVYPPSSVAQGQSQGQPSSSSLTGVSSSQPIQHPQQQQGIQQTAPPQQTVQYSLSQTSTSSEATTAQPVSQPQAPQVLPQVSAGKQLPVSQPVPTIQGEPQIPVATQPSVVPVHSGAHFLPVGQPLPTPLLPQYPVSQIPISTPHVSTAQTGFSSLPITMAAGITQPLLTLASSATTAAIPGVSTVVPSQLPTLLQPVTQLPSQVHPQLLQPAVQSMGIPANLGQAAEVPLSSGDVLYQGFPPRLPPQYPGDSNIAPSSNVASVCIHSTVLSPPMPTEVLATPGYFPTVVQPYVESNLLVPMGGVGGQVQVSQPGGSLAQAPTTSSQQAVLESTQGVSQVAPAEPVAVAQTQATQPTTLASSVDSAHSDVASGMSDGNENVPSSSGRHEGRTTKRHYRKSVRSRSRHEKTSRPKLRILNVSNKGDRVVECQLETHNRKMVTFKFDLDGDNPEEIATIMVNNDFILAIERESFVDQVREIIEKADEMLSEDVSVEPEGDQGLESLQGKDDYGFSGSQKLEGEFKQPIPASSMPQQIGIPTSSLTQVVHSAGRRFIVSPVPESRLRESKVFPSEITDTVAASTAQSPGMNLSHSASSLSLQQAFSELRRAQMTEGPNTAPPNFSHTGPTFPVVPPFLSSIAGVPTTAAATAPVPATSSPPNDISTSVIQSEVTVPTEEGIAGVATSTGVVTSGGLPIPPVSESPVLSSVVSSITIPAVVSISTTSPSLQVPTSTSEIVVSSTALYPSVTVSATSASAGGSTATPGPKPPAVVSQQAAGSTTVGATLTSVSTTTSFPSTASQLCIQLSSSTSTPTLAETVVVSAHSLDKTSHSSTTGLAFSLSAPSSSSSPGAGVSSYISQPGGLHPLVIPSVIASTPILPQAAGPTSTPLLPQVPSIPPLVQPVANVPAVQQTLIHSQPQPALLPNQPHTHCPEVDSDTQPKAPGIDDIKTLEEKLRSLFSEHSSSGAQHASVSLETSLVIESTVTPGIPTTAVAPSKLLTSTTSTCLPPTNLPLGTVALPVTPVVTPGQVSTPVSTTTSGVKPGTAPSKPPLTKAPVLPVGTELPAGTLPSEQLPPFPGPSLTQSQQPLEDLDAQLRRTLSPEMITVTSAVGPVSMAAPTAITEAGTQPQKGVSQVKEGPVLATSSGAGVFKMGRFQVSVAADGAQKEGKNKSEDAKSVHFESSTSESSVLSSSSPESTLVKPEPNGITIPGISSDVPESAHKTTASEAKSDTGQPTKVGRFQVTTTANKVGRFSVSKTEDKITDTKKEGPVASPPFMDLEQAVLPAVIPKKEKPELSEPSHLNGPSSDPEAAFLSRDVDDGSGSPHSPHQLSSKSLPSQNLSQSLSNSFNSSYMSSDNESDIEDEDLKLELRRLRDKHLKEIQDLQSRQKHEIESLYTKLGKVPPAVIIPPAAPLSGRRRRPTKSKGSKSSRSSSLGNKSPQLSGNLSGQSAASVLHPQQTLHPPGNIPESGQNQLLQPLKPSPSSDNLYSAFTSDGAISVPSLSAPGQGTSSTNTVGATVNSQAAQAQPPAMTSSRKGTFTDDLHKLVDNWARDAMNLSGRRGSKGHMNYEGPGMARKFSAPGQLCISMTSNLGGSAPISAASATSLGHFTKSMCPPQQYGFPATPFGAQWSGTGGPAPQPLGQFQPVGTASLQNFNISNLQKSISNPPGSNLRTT
Source text: as §1

Chain of MST3 (Q9Y6E0 whole entry, species assumed): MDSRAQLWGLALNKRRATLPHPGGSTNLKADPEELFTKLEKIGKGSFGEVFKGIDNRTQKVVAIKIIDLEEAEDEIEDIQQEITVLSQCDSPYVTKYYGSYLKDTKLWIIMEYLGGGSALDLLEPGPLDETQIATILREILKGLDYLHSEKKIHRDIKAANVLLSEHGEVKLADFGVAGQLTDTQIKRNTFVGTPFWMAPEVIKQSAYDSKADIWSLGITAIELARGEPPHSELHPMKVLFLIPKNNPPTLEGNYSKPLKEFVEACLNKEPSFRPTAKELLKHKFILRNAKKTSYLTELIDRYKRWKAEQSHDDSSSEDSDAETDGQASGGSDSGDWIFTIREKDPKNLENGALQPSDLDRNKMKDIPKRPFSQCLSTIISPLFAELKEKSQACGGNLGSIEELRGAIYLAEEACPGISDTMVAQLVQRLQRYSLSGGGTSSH

Row | SMILES | residual kinase activity, MST3 [1] | residual kinase activity, CDK2-Cyclin A [2] | residual kinase activity, ULK2 [3] | residual kinase activity, IKKb [4] | residual kinase activity, BRK [5] | residual kinase activity, NUAK1 [6] | residual kinase activity, WNK1 [7] | remaining activity at 100 µM [1] [%] | remaining activity at 100 µM [2] [%] | remaining activity at 100 µM [3] [%] | remaining activity at 100 µM [4] [%] | remaining activity at 100 µM [5] [%] | remaining activity at 100 µM [6] [%] | remaining activity at 100 µM [7] [%]
1 | CC(=O)Nc1nc2ccccc2s1 [Compound 03-32] | 87 | 76 | 92 | 75 | 89 | 74 | 98 | – | – | – | – | – | – | –
2 | O=C(Nc1nc2cc(O)ccc2s1)c1cccnc1 [Compound 03-33] | 90 | 92 | 85 | 81 | 46 | 68 | 103 | – | – | – | – | – | – | –
3 | O=C(Nc1nc2ccc(O)cc2s1)c1ccccc1 [Compound 03-60] | 54 | 78 | 69 | 87 | 14 | 14 | 108 | – | – | – | – | – | – | –
4 | CC(=O)Nc1nc2cc(C(F)(F)F)ccc2s1 [Compound 03-73] | – | – | – | – | – | – | – | 89 | 96 | 88 | 94 | 106 | 74 | 128
5 | CC(=O)Nc1nc2cc(C)ccc2s1 [Compound 03-76] | 85 | 72 | 88 | 59 | 80 | 58 | 104 | – | – | – | – | – | – | –
6 | CC(=O)Nc1nc2cc(F)ccc2s1 [Compound 03-77] | – | – | – | – | – | – | – | 87 | 66 | 83 | 61 | 91 | 66 | 99
7 | O=C(Nc1nc2ccc(O)cc2s1)c1ccncc1 [Compound 08-42] | 77 | 72 | 63 | 82 | 43 | 57 | 89 | – | – | – | – | – | – | –
8 | O=C(Nc1nc2ccc(O)cc2s1)c1cccnc1 [Compound 08-44] | 76 | 72 | 84 | 63 | 21 | 39 | 99 | – | – | – | – | – | – | –
